Results on 2 molecules are retold here after patent publication US8877234B2, “Preservatives” (Clariant Finance (BVI) Limited, priority 2005, dated 2014).

Series [1] relates to Candida albicans. The series is described as follows: Minimum inhibitory concentration (MIC), agar dilution method, DIN 58940. In kind it is cell-based. As to the method:
(§1) The MIC values were determined in accordance with DIN 58940 by the agar dilution method.

For series [2], the system named is Staphyloccus aureus. The series is described as above. It is filed as cell-based. As to the method:
as §1

Series [3] deals with Pseudomonas aeruginosa. The description is as above. It is filed as cell-based. As to the method: as §1
Series [4] concerns Aspergillus niger. Described as above. In kind it is cell-based. As to the method: as §1
For series [5] the following is noted: cited from earlier work.
The conditions of series [6]: O/W emulsions and W/O emulsions; 0.5% by weight; cited from earlier work.

Turning to `Cc1cc(CC(C)CC(C)(C)C)n(O)c(=O)c1.NCCO` (centres unmarked) [Octopirox ®, 2-aminoethanol salt of 1-hydroxy-4-methyl-6-(2,4,4-trimethylpentyl)-2(1H)-pyridone], the MIC in % in series [1] amounted to 0.004%; in series [2], 0.002%; in series [3], 0.016%; in series [4], 0.004%. Also, the solubility in oil result in series [5] is “no more than moderate solubility”. The solubility in water result in series [5] was “low solubility”. The antimicrobial activity entry in series [6] was “inadequate”.

As for `OCCOc1ccccc1` [PE, 2-phenoxyethanol], the MIC in % in series [1] is given as 0.5%; in series [2] it was 0.25%; in series [3], 0.5%; in series [4], 0.25%.
